{
  "source": "paper PMC6789111",
  "about": "“Crossing the blood-brain-barrier with nanoligand drug carriers self-assembled from a phage display peptide” (Nature Communications, 2019)",
  "key": {"[1]": {"system": "IL-1β", "experiment": "ELISA of IL-1β in hippocampus", "format": "in vivo, ICR mice", "conditions": "Ave."}, "[2]": {"conditions": "mouse, in vivo, iv", "procedure": "After 4, 24 and 72 h post injection, mice were sacrificed and perfused with 10 mL 0.9% (w/v) saline at a rate of 2 mL min^−1. Organs (brain, heart, liver, lung, kidney, spleen) were collected for haematoxylin-eosin (H&E) analysis. Tissues were sectioned at a 5 mm thickness. H&E staining was done by submersion in Harris hematoxylin followed by differentiation through 37% HCl and Li2CO3 solution. An Olympus optical microscope (Tokyo, Japan) was used for assessing slides."}, "[3]": {"system": "hCMEC/D3 cells", "experiment": "Cell uptake by flow cytometry", "format": "cell-based, human", "conditions": "5 µM, foetal bovine serum, 16 h, 37 °C (Supplementary Fig. 12)", "experimental": "Peptide internalisation was measured by flow cytometry (FACS ArrayTM Cell Analysis, Becton, Dickinson and Company, NJ, USA). Cells (1 × 10^5 cm^−2) were seeded on 24-well plates and grown 1 day at 37 °C and 5% CO2 in order to reach 60–70% confluence. The cells were washed 3 times with pre-heated PBS. The uptake studies were initiated by adding 500 µL of 5 µM fluorescence-labelled peptides (diluted in cell medium containing with different serum concentration). Serum concentration in incubation varied from 5 to 20% (v/v). […] A total of 10,000 cells were analysed by flow cytometry."}, "[4]": {"system": "GFAP", "experiment": "ELISA of GFAP in hippocampus", "format": "in vivo, ICR mice", "conditions": "Ave."}, "[5]": {"system": "hCMEC/D3 cells", "procedure": "LDH release was followed at 24 h post transfection procedures. The measurement was performed using CytoTox96® Non-Radioactive Cytotoxicity Assay kit (Promega, WI, USA)[43]. The maximum amount of LDH in the cells, induced by the addition of a lysis solution, was measured and used as a 100% LDH release and compared with peptidoplex and siPORT-siRNA complex-induced LDH release as well as to spontaneous cellular LDH release (untreated cells)."}, "[6]": {"system": "hCMEC/D3 cells", "experiment": "Competition studies of NLC uptake", "format": "cell-based, human", "experimental": "The amyloid β1–42 oligomers were prepared using a previous method. BSA was used as control protein competitor. The fluorescence microscopy and FACS were employed to observe and quantify FAM-CGY self-assembly uptake, respectively."}, "[7]": {"system": "hCMEC/D3 cell monolayer", "experiment": "Transwell in vitro BBB model", "format": "cell-based, human", "experimental": "For the construction of the in vitro BBB model, hCMEC/D3 cells were seeded on rat tail collagen-coated polycarbonate membranes (Transwell, No. 3401 Costar; Corning, Wiesbaden, Germany; 0.4 μm pore size; 1.13 cm^2 growth area) with a density of 100,000 cells cm^−2. Every three days the cell medium was change. In general after 7 days growth, the cells reached confluence. The transendothelial electrical resistance (TEER) and cell layer capacitance (CCL), which reflects the membrane surface area of the hCMEC/D3 cell monolayer, were measured using CellZscope system (NanoAnalytics, Münster, Germany). Cells with CCL values in the range of 0.5–5.0 μF cm^−2 indicate cell confluence and validate TEER values were selected for the transfer experiments. NLCs at different concentrations were introduced in to the apical side of the BBB model. The TEER values were measured during the incubation. After 24 h of incubation, the media from basal and apical sides were sampled and analysed for fluorescent measurement. CD31 and paracellular adherens (β-catenin) junctions were assessed by immunofluorescence labeling directly on the cell monolayer attached to the transwell membrane. Briefly, cells were fixed by 4% v/v paraformaldehyde for 10 min, rinsed and then permeabilised with 0.5% (v/v) Triton X-100 for 10 min. After rinsing samples were blocked by 5% w/v BSA for 1 h, followed by incubation with primary antibodies (rabbit polyclonal to CD31, rabbit polyclonal to anti-β-catenin) in 1% w/v BSA overnight at 4 °C. […] After rinsing, the red fluorescence from tight junction proteins was observed by a Leica AF6000LX microscope equipped with a 63 × objective using ×1.6 magnifications. […]\nformation of multiple cell-layers was sometime observed from day 7 onward. […] TEER values and its corresponding capacitance were recorded after the introduction of peptide for 24 h. (d) & (e) Staining and quantification of endothelial cells (CD31) and adheren β-catenin markers confirming the presence of a functional tight junction before and after NLC ( 5 µM) challenge. […]"}, "[8]": {"system": "IL-6", "experiment": "ELISA of IL-6 in hippocampus", "format": "in vivo, ICR mice", "conditions": "Ave.", "procedure": "After 4, 24 and 72 h post injection, mice were sacrificed and perfused with 10 mL 0.9% (w/v) saline at a rate of 2 mL min^−1."}, "[9]": {"system": "TNF-α", "conditions": "Ave.", "experimental": "Tissues were sectioned at a […] thickness.\nBlood samples were collected for determination of red blood cell count, white blood cell count, haemoglobin, haematocrit, mean corpuscular volume, mean corpuscular haemoglobin, mean corpuscular haemoglobin concentration and platelet count (XFA6030, Perlong Medical Inc., China). Hippocampus was dissected out, rinsed in ice-cold PBS thoroughly, weighted and immediately frozen in liquid nitrogen. Tissues were cut into small pieces and homogenized in 1 mL ice-cold PBS with a glass homogeniser and sonicated with an ultrasonic cell disrupter to break the cell membranes. Homogenates were centrifuges for 5 min at 5,000 × g and supernatants were assayed immediately for quantitative determination of TNF-α, IL-6, IL-1β, Iba-1 and GFAP by corresponding ELISA kits, respectively in accordance with manufacturer’s instructions."}},
  "note": "Read-outs that look alike come from different tables or passages of the source. Peptide text beside a SMILES is read from it. * marks the point of attachment. 5FAM = O=C1OC2(c3ccc(O)cc3Oc3cc(O)ccc32)c2ccc(C(=O)*)cc21",
  "data": [
    {"smiles": "CC[C@H](C)[C@H](NC(=O)[C@H](CC(N)=O)NC(=O)[C@H](Cc1c[nH]cn1)NC(=O)[C@@H](NC(=O)[C@@H]1CCCN1C(=O)[C@H](CCCNC(=N)N)NC(=O)[C@H](Cc1ccc(O)cc1)NC(=O)CNC(=O)[C@H](CS)NC(=O)c1ccc2c(c1)C(=O)OC21c2ccc(O)cc2Oc2cc(O)ccc21)C(C)C)C(=O)N[C@@H](CCCNC(=N)N)C(=O)NCC(=O)N[C@@H](Cc1c[nH]cn1)C(=O)N[C@@H](Cc1c[nH]c2ccccc12)C(=O)N[C@@H](C)C(=O)N1CCC[C@H]1C(=O)NCC(=O)O", "note": "[FAM-CGY] (5FAM-CGYRPVHNIRGHWAPG-OH)", "values": [
      {"measurement": "IL-1β in hippocampus (Figure 6g)", "setting": "[1]; 4 h after i.v.", "result": 21.06},
      {"measurement": "IL-1β in hippocampus (Figure 6g)", "setting": "[1]; 24 h after i.v. (LPS 24 h)", "result": 23.58},
      {"measurement": "IL-1β in hippocampus (Figure 6g)", "setting": "[1]; 72 h after i.v.", "result": 22.65},
      {"measurement": "histology of liver, kidneys, heart, lungs, spleen", "setting": "[2]", "result": "no adverse morphological changes and inflammatory reactions"},
      {"measurement": "effect of serum proteins on association with endothelial cells", "setting": "[3]", "result": "not affected by the presence of serum proteins"},
      {"measurement": "GFAP in hippocampus (Figure 6i)", "setting": "[4]; 4 h after i.v.", "result": 219.00},
      {"measurement": "GFAP in hippocampus (Figure 6i)", "setting": "[4]; 24 h after i.v. (LPS 24 h)", "result": 209.59},
      {"measurement": "GFAP in hippocampus (Figure 6i)", "setting": "[4]; 72 h after i.v.", "result": 220.69},
      {"measurement": "plasma membrane integrity (extracellular LDH)", "setting": "[5]", "result": "neither FAM-CGY NLCs nor FAM-CGY/siRNA nanoparticles perturbed plasma membrane integrity"},
      {"measurement": "inhibition of NLC uptake by transferrin", "setting": "[6]; 500 nM partially iron saturated human transferrin, 37 °C", "result": "~ 50%"},
      {"measurement": "FAM-CGY uptake (% of control)", "setting": "[6]; 5 µM NLC + 62.5 nM Tf, Ave. All", "result": "78.89 % of control"},
      {"measurement": "FAM-CGY uptake (% of control)", "setting": "[6]; 5 µM NLC + 62.5 nM Tf, Set 2", "result": "73.26 % of control"},
      {"measurement": "FAM-CGY uptake (% of control)", "setting": "[6]; 5 µM NLC + 62.5 nM Tf, Set 3", "result": "81.15 % of control"},
      {"measurement": "FAM-CGY uptake (% of control)", "setting": "[6]; 5 µM NLC + 62.5 nM transferrin (Tf), 16 h, FACS, Set 1", "result": "82.27 % of control"},
      {"measurement": "FAM-CGY uptake (% of control)", "setting": "[6]; 5 µM NLC + 250 nM Tf+20 μg RAGE P, Ave. All", "result": "33.57 % of control"},
      {"measurement": "FAM-CGY uptake (% of control)", "setting": "[6]; 5 µM NLC + 250 nM Tf, Ave. All", "result": "53.82 % of control"},
      {"measurement": "FAM-CGY uptake (% of control)", "setting": "[6]; 5 µM NLC + 500 nM Tf, Ave. All", "result": "48.73 % of control"},
      {"measurement": "FAM-CGY uptake (% of control)", "setting": "[6]; 5 µM NLC + 5 μg RAGE P, Ave. All", "result": "90.44 % of control"},
      {"measurement": "FAM-CGY uptake (% of control)", "setting": "[6]; 5 µM NLC + 5 μg RAGE P, Set 2", "result": "86.26 % of control"},
      {"measurement": "FAM-CGY uptake (% of control)", "setting": "[6]; 5 µM NLC + 5 μg RAGE P, Set 3", "result": "92.62 % of control"},
      {"measurement": "FAM-CGY uptake (% of control)", "setting": "[6]; 5 µM NLC + 5 μg RAGE peptide (RAGE P), Set 1", "result": "92.46 % of control"},
      {"measurement": "FAM-CGY uptake (% of control)", "setting": "[6]; 5 µM NLC + 10 μg RAGE P, Ave. All", "result": "82.03 % of control"},
      {"measurement": "FAM-CGY uptake (% of control)", "setting": "[6]; 5 µM NLC + 20 μg RAGE P, Ave. All", "result": "58.83 % of control"},
      {"measurement": "FAM-CGY uptake (% of control)", "setting": "[6]; 5 µM NLC + 40 μg BSA (irrelevant protein), Set 1", "result": "108.69 % of control"},
      {"measurement": "FAM-CGY uptake (% of control)", "setting": "[6]; 5 µM NLC + 40 μg BSA, Ave. All", "result": "103.56 % of control"},
      {"measurement": "FAM-CGY uptake (% of control)", "setting": "[6]; 5 µM NLC + 40 μg BSA, Set 2", "result": "96.26 % of control"},
      {"measurement": "FAM-CGY uptake (% of control)", "setting": "[6]; 5 µM NLC + 40 μg BSA, Set 3", "result": "105.73 % of control"},
      {"measurement": "block of NLC uptake by transferrin plus RAGE peptide ligand", "setting": "[6]; simultaneous presence of both", "result": "~ 70%"},
      {"measurement": "transport across the hCMEC/D3 monolayer", "setting": "[7]", "result": "transport of a fraction across the monolayer"},
      {"measurement": "IL-6 in hippocampus (Figure 6f)", "setting": "[8]; 4 h after i.v.", "result": 6.03},
      {"measurement": "IL-6 in hippocampus (Figure 6f)", "setting": "[8]; 72 h after i.v.", "result": 6.23},
      {"measurement": "TNF-α in hippocampus (Figure 6e)", "setting": "[9]; 4 h after i.v.", "result": 13.40},
      {"measurement": "TNF-α in hippocampus (Figure 6e)", "setting": "[9]; 24 h after i.v. (LPS 24 h)", "result": 12.87},
      {"measurement": "TNF-α in hippocampus (Figure 6e)", "setting": "[9]; 72 h after i.v.", "result": 12.94}
    ]}
  ]
}
